Source: US20080107661A1, “MUC1 and ABL” (Dana-Farber Cancer Institute, Inc., priority 2006, published 2008)

How the values were obtained:
Assay type in all cases: cell-based, human
MUC1-C = assay: Nuclear MUC1-C levels in HCT116/MUC1 cells after CDDP (immunoblot, densitometric scanning); conditions: CDDP, 0, 1, 2 and 4 hours, over untreated cells
Experimental: Subcellular fractionation. Nuclear fractions were prepared as described (Kharbanda et al., (1996) Cancer Res. 56:3617-3621). Cytosolic fractions were prepared as described (Hill et al., (2004) EMBO J. 23:2134-2145). Cell membrane fractions were prepared with the Plasma Membrane Extraction Kit (BioVision Research Products, Mountain View, Calif.). Mitochondria were purified as described (Ren et al., (2004) Cancer Cell 5:163-175; Ren et al., (2006) Oncogene 25:20-31). Immunoprecipitations and immunoblot analysis. Cell lysates were prepared as described (Kharbanda et al., (1995) Nature 376:785-788); Yoshida et al., (2005) Nat. Cell Biol. 7:278-285). Soluble proteins were incubated with anti-MUC1-N (Kufe et al., (1984) Hybridoma 3:223-232), anti-MUC1-C (Ab5; Neomarker, Montreal, Quebec), anti-Flag (Sigma, St. Louis, Mo.), anti-c-Abl (Ab3; Oncogene, San Diego, Calif.) or anti-14-3-3 (Abcam Inc., Cambridge, Mass.) antibodies for 2 hours at 4° C., followed by precipitation with protein G-Sepharose beads for 1 hour. […] Intensity of the signals was determined by densitometric scanning. Statistical significance was determined by the Student's t-test.

c-Abl [1] = assay: Analysis of c-Abl kinase activity (anti-c-Abl immunoprecipitates, Crk(120-225), [γ-32P]ATP); conditions: HCT116 cells; CDDP, 1 hour
Experimental: Analysis of c-Abl kinase activity. Nuclear lysates were immunoprecipitated with anti-c-Abl (K-12) antibodies as described (Kharbanda et al., (1997) Nature 386:732-735). The precipitates were resuspended in kinase buffer (20 mM HEPES, pH 7.4, 10 mM MgCl2) containing [γ-^32P]ATP, GST-Crk(120-225) for 20 minutes at 30° C. The reaction products were analyzed by SDS-PAGE and autoradiography.

c-Abl [2] = assay: Nuclear targeting of c-Abl in HCT116/vector, HCT116/MUC1 and mutant cells after CDDP
Description: (§1) Cell culture. Human HeLa cervical cancer cells, HCT116/vector (HCT116 colorectal carcinoma cells stably transfected with an empty vector), HCT116/MUC1 (HCT116 colorectal carcinoma cells stably transfected with an expression vector encoding a MUC1 polypeptide), HCT116/MUC1(Y46F) (HCT116 colorectal carcinoma cells stably transfected with an expression vector encoding a mutant MUC1 polypeptide containing an amino acid substitution at position 46 changing a tyrosine (Y) to phenylalanine (F)) colon cancer cells (Ren et al., (2002) J. Biol. Chem. 277: 17616-17622) and 293 cells were cultured in Dulbecco's modified medium with 10% heat-inactivated fetal bovine serum, 100 units/ml penicillin, 100 μg/ml streptomycin and 2 mM L-glutamine. Human ZR-75-1/vector (ZR-75-1 breast cancer cells stably transfected with an empty vector) and ZR-75-1/MUC1siRNA (ZR-75-1 breast cancer cells stably transfected with an expression vector encoding an siRNA specific for MUC1) breast cancer cells (Ren et al., (2004) Cancer Cell 5:163-175) were grown in RPMI1640 medium containing 10% heat-inactivated fetal bovine serum and antibiotics. Cells were treated with 1 μM adriamycin (ADR; Calbiochem), 100 μM cisplatin (CDDP; Sigma) or 10 μM STI571 (Gleevec; Novartis, Basel, Switzerland).
(§2) Subcellular fractionation. Nuclear fractions were prepared as described (Kharbanda et al., (1996) Cancer Res. 56:3617-3621). Cytosolic fractions were prepared as described (Hill et al., (2004) EMBO J. 23:2134-2145). Cell membrane fractions were prepared with the Plasma Membrane Extraction Kit (BioVision Research Products, Mountain View, Calif.). Mitochondria were purified as described (Ren et al., (2004) Cancer Cell 5:163-175; Ren et al., (2006) Oncogene 25:20-31).
Immunoprecipitations and immunoblot analysis. Cell lysates were prepared as described (Kharbanda et al., (1995) Nature 376:785-788); Yoshida et al., (2005) Nat. Cell Biol. 7:278-285). Soluble proteins were incubated with anti-MUC1-N (Kufe et al., (1984) Hybridoma 3:223-232), anti-MUC1-C (Ab5; Neomarker, Montreal, Quebec), anti-Flag (Sigma, St. Louis, Mo.), anti-c-Abl (Ab3; Oncogene, San Diego, Calif.) or anti-14-3-3 (Abcam Inc., Cambridge, Mass.) antibodies for 2 hours at 4° C., followed by precipitation with protein G-Sepharose beads for 1 hour. […] Intensity of the signals was determined by densitometric scanning. Statistical significance was determined by the Student's t-test.

c-Abl [3] = assay: Nuclear and cytosolic c-Abl in ZR-75-1/vector and ZR-75-1/MUC1siRNA cells after CDDP (fractionation, immunoblot)
Description: as §1, §2
Immunoprecipitations and immunoblot analysis. Cell lysates were prepared as described (Kharbanda et al., (1995) Nature 376:785-788); Yoshida et al., (2005) Nat. Cell Biol. 7:278-285). […] Intensity of the signals was determined by densitometric scanning. Statistical significance was determined by the Student's t-test.

[NH2][Pt]([NH2])([Cl])[Cl] [CDDP, cisplatin]
increase in nuclear MUC1-C levels (MUC1-C): two-fold | c-Abl kinase activity (c-Abl [1]): induction of c-Abl activity | CDDP-induced targeting of cytosolic c-Abl to the nucleus (c-Abl [2]; HCT116/MUC1(Y46F) cells, CDDP, 0, 2 or 4 hours): blocked CDDP-induced targeting of cytosolic c-Abl to the nucleus | effect of MUC1(Y60F) on CDDP-induced targeting of c-Abl to the nucleus (c-Abl [2]; HCT116/MUC1(Y60F) cells, CDDP, 2 and 4 hours): little if any effect | nuclear targeting of c-Abl (c-Abl [2]; HCT116/MUC1 cells, CDDP, 2 and 4 hours): blocked nuclear targeting of c-Abl | nuclear targeting of c-Abl (c-Abl [2]; HCT116/vector cells, CDDP, 2 and 4 hours): c-Abl was targeted to the nucleus | cytosolic c-Abl (c-Abl [3]; ZR-75-1/MUC1siRNA cells): decreased | increase of nuclear targeting of c-Abl (c-Abl [3]; ZR-75-1/MUC1siRNA cells silenced for MUC1, 2 and 4 hours): about 6 fold | nuclear targeting of c-Abl (c-Abl [3]; ZR-75-1/vector cells, 2 and 4 hours): no detectable targeting of c-Abl to the nucleus
